Experimental data taken from patent publication US20230085307A1, “PYRIDAZINONE COMPOUND AND HERBICIDE” (NISSAN CHEMICAL CORPORATION, priority 2019, published 2023).

Assays:
barnyard grass [1] = test: Test Example 4: herbicidal effect by soil treatment (Table 19, symbol H); type: in vivo, barnyard grass (Echinochloa crus-galli); conditions: amount of applied herbicide 320 g/ha
Method in brief: (§1)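 Pre-emergence style soil spray: seeds under ~1.5 cm sterilized diluvial soil received a uniform coat of emulsion diluted to the predetermined herbicide amount. Greenhouse 25–30° C; readout at week three on previously defined criteria.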

green foxtail [2] = test: Test Example 5: herbicidal effect by foliage application, plastic box (Table 20, symbol G); type: in vivo, green foxtail (Setaria viridis); conditions: foliage application, 320 g/ha
Method in brief: (§2)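 Plants were sown into sterilized diluvial soil under about 1.5 cm cover and kept in a greenhouse at 25° C. to 30° C. Fourteen days on, foliage received an even spray of the diluted emulsion. Herbicidal or crop effect was judged three weeks afterwards.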

persian speedwell [3] = test: Test Example 4: herbicidal effect by soil treatment (Table 19, symbol R); type: in vivo, Persian speedwell (Veronica persica); conditions: amount of applied herbicide 320 g/ha
Method in brief: as §1

southern crabgrass [4] = test: Test Example 5: herbicidal effect by foliage application, plastic box (Table 20, symbol F); type: in vivo, southern crabgrass (Digitaria ciliaris); conditions: foliage application, 320 g/ha
Method in brief: as §2

windgrass [5] = test: Test Example 5: herbicidal effect by foliage application, plastic box (Table 20, symbol L); type: in vivo, windgrass (Apera spica-venti); conditions: foliage application, 320 g/ha
Method in brief: as §2

false cleavers = test: Test Example 4: herbicidal effect by soil treatment (Table 19, symbol Q); type: in vivo, false cleavers (Galium spurium); conditions: amount of applied herbicide 320 g/ha
Method in brief: as §1

chickweed [6] = test: Test Example 4: herbicidal effect by soil treatment (Table 19, symbol P); type: in vivo, common chickweed (Stellaria media); conditions: amount of applied herbicide 320 g/ha
Method in brief: as §1

velvetleaf [7] = test: Test Example 5: herbicidal effect by foliage application, plastic box (Table 20, symbol M); type: in vivo, velvetleaf (Abutilon theophrasti); conditions: foliage application, 320 g/ha
Method in brief: as §2

late watergrass = test: Test Example 1: herbicidal activity, application before weed generation under submerged conditions (Table 16, symbol A); type: in vivo, late watergrass (Echinochloa oryzicola); conditions: amount of applied herbicide 320 g/ha
Method in brief: (§3)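 Submerged Wagner pots (alluvial soil, 4 cm water) sown with weed seeds and planted with 2.5-leaf rice seedlings; emulsifiable concentrate diluted in water applied to water surface on sowing day. Held in greenhouse at 25-30 °C; injury scored 0-5 by herbicidal rate after three weeks.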

barnyard grass [8] = test: Test Example 3: herbicidal effect by foliage application, Wagner pot (Table 18, symbol H); type: in vivo, barnyard grass (Echinochloa crus-galli)
Method in brief: (§4)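 Plants were sown in alluvial soil held under 0.1–0.5 cm standing water and grown 14 days in a greenhouse at 25–30 °C. An emulsifiable formulation, water-diluted to the set dose, was then sprayed onto the foliage, and effects were scored three weeks later using previously defined criteria.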

persian speedwell [9] = test: Test Example 5: herbicidal effect by foliage application, plastic box (Table 20, symbol R); type: in vivo, Persian speedwell (Veronica persica); conditions: foliage application, 320 g/ha
Method in brief: as §2

windgrass [10] = test: Test Example 4: herbicidal effect by soil treatment (Table 19, symbol L); type: in vivo, windgrass (Apera spica-venti); conditions: amount of applied herbicide 320 g/ha
Method in brief: as §1

barnyard grass [11] = test: Test Example 5: herbicidal effect by foliage application, plastic box (Table 20, symbol H); type: in vivo, barnyard grass (Echinochloa crus-galli); conditions: foliage application, 320 g/ha
Method in brief: as §2

rice flat sedge = test: Test Example 3: herbicidal effect by foliage application, Wagner pot (Table 18, symbol E); type: in vivo, rice flat sedge (Cyperus iria)
Method in brief: as §4

lambsquarters [12] = test: Test Example 5: herbicidal effect by foliage application, plastic box (Table 20, symbol O); type: in vivo, lambsquarters (Chenopodium album); conditions: foliage application, 320 g/ha
Method in brief: as §2

Japanese bulrush = test: Test Example 1: herbicidal activity, application before weed generation under submerged conditions (Table 16, symbol B); type: in vivo, Japanese bulrush (Schoenoplectus juncoides); conditions: amount of applied herbicide 320 g/ha
Method in brief: as §3

wild oat [13] = test: Test Example 5: herbicidal effect by foliage application, plastic box (Table 20, symbol I); type: in vivo, wild oat (Avena fatua); conditions: foliage application, 320 g/ha
Method in brief: as §2

oval-leafed pondweed = test: Test Example 1: herbicidal activity, application before weed generation under submerged conditions (Table 16, symbol C); type: in vivo, oval-leafed pondweed (Monochoria vaginalis); conditions: amount of applied herbicide 320 g/ha
Method in brief: as §3

Italian ryegrass [14] = test: Test Example 5: herbicidal effect by foliage application, plastic box (Table 20, symbol K); type: in vivo, Italian ryegrass (Lolium multiflorum); conditions: foliage application, 320 g/ha
Method in brief: as §2

Italian ryegrass [15] = test: Test Example 4: herbicidal effect by soil treatment (Table 19, symbol K); type: in vivo, Italian ryegrass (Lolium multiflorum); conditions: amount of applied herbicide 320 g/ha
Method in brief: as §1

Chinese sprangletop = test: Test Example 3: herbicidal effect by foliage application, Wagner pot (Table 18, symbol D); type: in vivo, chinese sprangletop (Leptochloa chinensis)
Method in brief: as §4

blackgrass [16] = test: Test Example 4: herbicidal effect by soil treatment (Table 19, symbol J); type: in vivo, blackgrass (Alopecurus myosuroides); conditions: amount of applied herbicide 320 g/ha
Method in brief: as §1

lambsquarters [17] = test: Test Example 4: herbicidal effect by soil treatment (Table 19, symbol O); type: in vivo, lambsquarters (Chenopodium album); conditions: amount of applied herbicide 320 g/ha
Method in brief: as §1

redroot pigweed [18] = test: Test Example 4: herbicidal effect by soil treatment (Table 19, symbol N); type: in vivo, redroot pigweed (Amaranthus retroflexus); conditions: amount of applied herbicide 320 g/ha
Method in brief: as §1

wild oat [19] = test: Test Example 4: herbicidal effect by soil treatment (Table 19, symbol I); type: in vivo, wild oat (Avena fatua); conditions: amount of applied herbicide 320 g/ha
Method in brief: as §1

southern crabgrass [20] = test: Test Example 4: herbicidal effect by soil treatment (Table 19, symbol F); type: in vivo, southern crabgrass (Digitaria ciliaris); conditions: amount of applied herbicide 320 g/ha
Method in brief: as §1

green foxtail [21] = test: Test Example 4: herbicidal effect by soil treatment (Table 19, symbol G); type: in vivo, green foxtail (Setaria viridis); conditions: amount of applied herbicide 320 g/ha
Method in brief: as §1

blackgrass [22] = test: Test Example 5: herbicidal effect by foliage application, plastic box (Table 20, symbol J); type: in vivo, blackgrass (Alopecurus myosuroides); conditions: foliage application, 320 g/ha
Method in brief: as §2

velvetleaf [23] = test: Test Example 4: herbicidal effect by soil treatment (Table 19, symbol M); type: in vivo, velvetleaf (Abutilon theophrasti); conditions: amount of applied herbicide 320 g/ha
Method in brief: as §1

redroot pigweed [24] = test: Test Example 5: herbicidal effect by foliage application, plastic box (Table 20, symbol N); type: in vivo, redroot pigweed (Amaranthus retroflexus); conditions: foliage application, 320 g/ha, evaluated 3 weeks after application
Method in brief: as §2

chickweed [25] = test: Test Example 5: herbicidal effect by foliage application, plastic box (Table 20, symbol P); type: in vivo, common chickweed (Stellaria media); conditions: foliage application, 320 g/ha, evaluated 3 weeks after application
Method in brief: as §2

[26] = evaluated 3 weeks after application
[27] = amount of applied herbicide 320 g/ha

## Cc1nn(C)c(=O)c(-c2c(-c3ccc(OC(F)F)cc3)sc3cc(F)c(F)cc23)c1O [5-084]
Barnyard grass [1]
  H: barnyard grass, herbicidal effect grade: 1 (Herbicidal rate of 5% or more and less than 20%)
Green foxtail [2]; three weeks after application
  herbicidal effect on green foxtail (G): 4 (Herbicidal rate of 70% or more and less than 90%)
Persian speedwell [3]
  R: persian speedwell, herbicidal effect grade: 3 (Herbicidal rate of 40% or more and less than 70%)
Southern crabgrass [4]; three weeks after application
  herbicidal effect on southern crabgrass (F): 4 (Herbicidal rate of 70% or more and less than 90%)
Windgrass [5]; three weeks after application
  herbicidal effect on windgrass (L): 5 (Herbicidal rate of 90% or more (almost completely withered))
False cleavers
  Q: false cleavers, herbicidal effect grade: 2 (Herbicidal rate of 20% or more and less than 40%)
Chickweed [6]
  P: chickweed, herbicidal effect grade: 0 (Herbicidal rate of 5% or less (almost no effect))
Velvetleaf [7]; three weeks after application
  herbicidal effect on velvetleaf (M): 5 (Herbicidal rate of 90% or more (almost completely withered))
Late watergrass
  Herbicidal effect, A: late watergrass: 3 (Herbicidal rate of 40% or more and less than 70%)
Barnyard grass [8]; 320 g/ha
  herbicidal effect on barnyard grass (H): 4 (Herbicidal rate of 70% or more and less than 90%)
Persian speedwell [9]; three weeks after application
  herbicidal effect on persian speedwell (R): 5 (Herbicidal rate of 90% or more (almost completely withered))
Windgrass [10]
  L: windgrass, herbicidal effect grade: 5 (Herbicidal rate of 90% or more (almost completely withered))
Barnyard grass [11]; three weeks after application
  herbicidal effect on barnyard grass (H): 2 (Herbicidal rate of 20% or more and less than 40%)
Rice flat sedge; 320 g/ha
  herbicidal effect on rice flat sedge (E): 3 (Herbicidal rate of 40% or more and less than 70%)
Lambsquarters [12]; three weeks after application
  herbicidal effect on lambsquarters (O): 5 (Herbicidal rate of 90% or more (almost completely withered))
Japanese bulrush
  Herbicidal effect, B: Japanese bulrush: 2 (Herbicidal rate of 20% or more and less than 40%)
Wild oat [13]; three weeks after application
  herbicidal effect on wild oat (I): 3 (Herbicidal rate of 40% or more and less than 70%)
oval-leafed pondweed
  Herbicidal effect, C: oval-leafed pondweed: 0 (Herbicidal rate of 5% or less (almost no effect))
Italian ryegrass [14]; three weeks after application
  herbicidal effect on Italian ryegrass (K): 5 (Herbicidal rate of 90% or more (almost completely withered))
Italian ryegrass [15]
  K: Italian ryegrass, herbicidal effect grade: 0 (Herbicidal rate of 5% or less (almost no effect))
Chinese sprangletop; 320 g/ha
  herbicidal effect on Chinese sprangletop (D): 0 (Herbicidal rate of 5% or less (almost no effect))
Blackgrass [16]
  J: blackgrass, herbicidal effect grade: 0 (Herbicidal rate of 5% or less (almost no effect))
Lambsquarters [17]
  O: lambsquarters, herbicidal effect grade: 5 (Herbicidal rate of 90% or more (almost completely withered))
Redroot pigweed [18]
  N: redroot pigweed, herbicidal effect grade: 5 (Herbicidal rate of 90% or more (almost completely withered))
Wild oat [19]
  I: wild oat, herbicidal effect grade: 0 (Herbicidal rate of 5% or less (almost no effect))
Southern crabgrass [20]
  F: southern crabgrass, herbicidal effect grade: 0 (Herbicidal rate of 5% or less (almost no effect))
Green foxtail [21]
  G: green foxtail, herbicidal effect grade: 2 (Herbicidal rate of 20% or more and less than 40%)
Blackgrass [22]; three weeks after application
  herbicidal effect on blackgrass (J): 4 (Herbicidal rate of 70% or more and less than 90%)
Velvetleaf [23]
  M: velvetleaf, herbicidal effect grade: 4 (Herbicidal rate of 70% or more and less than 90%)

## Cc1nn(C)c(=O)c(-c2c(-c3ccc(Cl)s3)oc3ccc(F)cc23)c1O [9-047]
Barnyard grass [1]
  H: barnyard grass, herbicidal effect grade: 0 (Herbicidal rate of 5% or less (almost no effect))
Green foxtail [2]; [26]
  G (green foxtail) herbicidal effect grade: 2 (Herbicidal rate of 20% or more and less than 40%)
Persian speedwell [3]
  R: persian speedwell, herbicidal effect grade: 1 (Herbicidal rate of 5% or more and less than 20%)
Southern crabgrass [4]; [26]
  F (southern crabgrass) herbicidal effect grade: 3 (Herbicidal rate of 40% or more and less than 70%)
Windgrass [5]; [26]
  L (windgrass) herbicidal effect grade: 0 (Herbicidal rate of 5% or less (almost no effect))
False cleavers
  Q: false cleavers, herbicidal effect grade: 0 (Herbicidal rate of 5% or less (almost no effect))
Chickweed [6]
  P: chickweed, herbicidal effect grade: 0 (Herbicidal rate of 5% or less (almost no effect))
Velvetleaf [7]; [26]
  M (velvetleaf) herbicidal effect grade: 2 (Herbicidal rate of 20% or more and less than 40%)
Barnyard grass [8]; [27]
  Herbicidal effect on H (barnyard grass), foliage application: 2 (Herbicidal rate of 20% or more and less than 40%)
Persian speedwell [9]; [26]
  R (persian speedwell) herbicidal effect grade: 4 (Herbicidal rate of 70% or more and less than 90%)
Redroot pigweed [24]
  N (redroot pigweed) herbicidal effect grade: 3 (Herbicidal rate of 40% or more and less than 70%)
Windgrass [10]
  L: windgrass, herbicidal effect grade: 0 (Herbicidal rate of 5% or less (almost no effect))
Barnyard grass [11]; [26]
  H (barnyard grass) herbicidal effect grade: 3 (Herbicidal rate of 40% or more and less than 70%)
Rice flat sedge; [27]
  Herbicidal effect on E (rice flat sedge), foliage application: 3 (Herbicidal rate of 40% or more and less than 70%)
Lambsquarters [12]; [26]
  O (lambsquarters) herbicidal effect grade: 1 (Herbicidal rate of 5% or more and less than 20%)
Wild oat [13]; [26]
  I (wild oat) herbicidal effect grade: 1 (Herbicidal rate of 5% or more and less than 20%)
Italian ryegrass [14]; [26]
  K (Italian ryegrass) herbicidal effect grade: 4 (Herbicidal rate of 70% or more and less than 90%)
Italian ryegrass [15]
  K: Italian ryegrass, herbicidal effect grade: 4 (Herbicidal rate of 70% or more and less than 90%)
Chinese sprangletop; [27]
  Herbicidal effect on D (Chinese sprangletop), foliage application: 0 (Herbicidal rate of 5% or less (almost no effect))
Blackgrass [16]
  J: blackgrass, herbicidal effect grade: 0 (Herbicidal rate of 5% or less (almost no effect))
Chickweed [25]
  P (chickweed) herbicidal effect grade: 5 (Herbicidal rate of 90% or more (almost completely withered))
Lambsquarters [17]
  O: lambsquarters, herbicidal effect grade: 0 (Herbicidal rate of 5% or less (almost no effect))
Redroot pigweed [18]
  N: redroot pigweed, herbicidal effect grade: 3 (Herbicidal rate of 40% or more and less than 70%)
Wild oat [19]
  I: wild oat, herbicidal effect grade: 0 (Herbicidal rate of 5% or less (almost no effect))
Southern crabgrass [20]
  F: southern crabgrass, herbicidal effect grade: 0 (Herbicidal rate of 5% or less (almost no effect))
Green foxtail [21]
  G: green foxtail, herbicidal effect grade: 0 (Herbicidal rate of 5% or less (almost no effect))
Blackgrass [22]; [26]
  J (blackgrass) herbicidal effect grade: 0 (Herbicidal rate of 5% or less (almost no effect))
Velvetleaf [23]
  M: velvetleaf, herbicidal effect grade: 0 (Herbicidal rate of 5% or less (almost no effect))
